Target: T1, BCRP (Homo sapiens, UniProt Q9UNQ0)
T1 construct: host or cells: MDCKII
T1 sequence (Q9UNQ0 1-655): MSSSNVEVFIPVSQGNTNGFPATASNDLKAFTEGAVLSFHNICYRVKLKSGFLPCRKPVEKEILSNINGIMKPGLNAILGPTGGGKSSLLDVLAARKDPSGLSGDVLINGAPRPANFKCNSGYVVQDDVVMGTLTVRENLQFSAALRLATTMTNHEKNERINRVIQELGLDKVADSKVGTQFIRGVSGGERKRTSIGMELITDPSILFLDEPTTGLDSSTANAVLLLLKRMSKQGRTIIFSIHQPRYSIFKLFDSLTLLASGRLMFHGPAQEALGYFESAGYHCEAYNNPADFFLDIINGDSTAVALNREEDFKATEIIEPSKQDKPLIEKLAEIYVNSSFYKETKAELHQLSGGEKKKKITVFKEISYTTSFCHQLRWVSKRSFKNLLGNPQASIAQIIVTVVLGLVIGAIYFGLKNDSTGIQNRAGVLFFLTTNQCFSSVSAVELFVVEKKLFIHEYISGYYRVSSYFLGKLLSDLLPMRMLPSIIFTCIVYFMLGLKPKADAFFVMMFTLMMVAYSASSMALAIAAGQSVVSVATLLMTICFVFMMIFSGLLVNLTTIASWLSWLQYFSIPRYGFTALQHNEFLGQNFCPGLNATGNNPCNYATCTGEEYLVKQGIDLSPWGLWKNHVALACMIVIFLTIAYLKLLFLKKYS
Assay: BCRP inhibition in MDCKII-ABCG2 cells
Format: cell-based
Conditions: mean ± SD of 3 independent studies in duplicate, tested 0.14–100 µM
Description: Chinese Hamster Ovary (CHO) cells were obtained from Professor B. Stieger’s laboratory at University of Zurich, Zurich, Switzerland. Madin-Darby Canine Kidney strain II (MDCKII) cells were obtained from Nederlands Kanker Instituut (NKI), Amsterdam, Netherlands. NTCP-CHO cells, BSEP and MRP2 membrane vesicles were developed and validated at Solvo Biotechnology, Budaors, Hungary.
MDCKII cells were maintained in DMEM with sodium pyruvate, Glutmax, 1% Penicillin/Streptomycin and 10% FBS in an incubator set at 37°C, 90% humidity and 5% CO2. MDCKII cells were seeded in 96-well black cell culture plates with clear bottoms at a density of 5×10^4 cells/well for Pgp and 2×10^4 cells/well for BCRP and grown to confluence. For the Pgp assay, test compounds were serially diluted in DMSO and then added into in cell culture medium (without FBS) containing 10 µM Calcein AM and incubated for 1 h. Following the removal of media containing Calcein AM and test compound, cells were washed five times with […] phosphate buffered saline containing magnesium and calcium (PBS). Wells were analyzed for Calcein AM fluorescence at an excitation of 494 nm and an emission of 517 nm. For the BCRP assay, test compounds were serially diluted DMSO and then spiked in cell culture medium (without FBS) containing 1 µM pheophorbide a (PhA) and incubated for 18 hours with MDCKII-ABCG2 cells. Following the removal of media containing PhA and test compound, cells were then washed five times with PBS. Wells were analyzed for PhA fluorescence at an excitation of 415 nm and an emission of 675 nm.
All assays were performed in duplicate. IC50 was defined as the test article concentration needed to inhibit the maximal transporter specific accumulation by 50%. IC50 values were calculated using non-linear fitting of % inhibition versus concentration to a sigmoidal curve with a variable Hill Coefficient using GraphPad Prism 5 (GraphPad Software Inc., San Diego, CA).

| Compound | IC50 [µM] |
| --- | --- |
| COC(c1ccccc1)(c1ccccc1)[C@H](Oc1nc(C)cc(C)n1)C(=O)O [ambrisentan] | > 100 |
| COc1ccccc1Oc1c(NS(=O)(=O)c2ccc(C(C)(C)C)cc2)nc(-c2ncccn2)nc1OCCO [bosentan] | > 100 |
| CCCNS(=O)(=O)Nc1ncnc(OCCOc2ncc(Br)cn2)c1-c1ccc(Br)cc1 [macitentan] | 75 ± 37 |

— publication PMC3907537, “Evaluation of the Endothelin Receptor Antagonists Ambrisentan, Bosentan, Macitentan, and Sitaxsentan as Hepatobiliary Transporter Inhibitors and Substrates in Sandwich-Cultured Human Hepatocytes” (PLoS ONE, 2014)
